Experimental data taken from the supplement of paper PMC4932681.

Key:
ZR-75-1 [1] = assay: relative IC50 (midpoint of fitted logistic curve, plateau may be below 50% inhibition; CellTiter-Glo viability); higher = less potent; conditions: 72 h
Outline: (§1)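 Drug sensitivity score, relative IC50 as the curve midpoint, and top-dose inhibition were derived from logistic dose–response fits in the Breeze pipeline. These fits used CellTiter-Glo viability, read on a PHERAstar and normalised to vehicle-only and positive controls. Breast cancer cell lines and resistant derivatives had been incubated for 72 h at 37 °C in 384-well plates holding library drugs at five concentrations spanning a 10 000-fold range. Resistant lines were grown in medium with 1 μM of the selecting drug.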

BT-474 Tam2 [2] = assay: as above; conditions: 4-OH-tamoxifen in medium 1 µM; 72 h
Outline: as §1

BT-474 [3] = assay: as above; conditions: 72 h
Outline: as §1

MCF-7 [4] = assay: as above; conditions: 72 h
Outline: as §1

ZR-75-1 Tam1 [5] = assay: as above; conditions: 4-OH-tamoxifen in medium 1 µM; 72 h
Outline: as §1

T-47D Tam2 [6] = assay: as above; conditions: 4-OH-tamoxifen in medium 1 µM; 72 h
Outline: as §1

T-47D [7] = assay: as above; conditions: 72 h
Outline: as §1

MCF-7 Tam1 [8] = assay: as above; conditions: 4-OH-tamoxifen in medium 1 µM; 72 h
Outline: as §1

ZR-75-1 Tam2 [9] = assay: as above; conditions: 4-OH-tamoxifen in medium 1 µM; 72 h
Outline: as §1

ZR-75-1 [10] = assay: drug sensitivity score (DSS) (DSS (dimensionless)); higher = more sensitive; extreme values may be limits of the assay; conditions: 72 h
Outline: as §1

BT-474 Tam2 [11] = assay: as above; conditions: 4-OH-tamoxifen in medium 1 µM; 72 h
Outline: as §1

BT-474 [12] = assay: as above; conditions: 72 h
Outline: as §1

MCF-7 [13] = assay: as above; conditions: 72 h
Outline: as §1

BT-474 Tam1 [14] = assay: as above; conditions: 4-OH-tamoxifen in medium 1 µM; 72 h
Outline: as §1

ZR-75-1 Tam1 [15] = assay: as above; conditions: 4-OH-tamoxifen in medium 1 µM; 72 h
Outline: as §1

T-47D Tam1 = assay: as above; conditions: 4-OH-tamoxifen in medium 1 µM; 72 h
Outline: as §1

T-47D Tam2 [16] = assay: as above; conditions: 4-OH-tamoxifen in medium 1 µM; 72 h
Outline: as §1

T-47D [17] = assay: as above; conditions: 72 h
Outline: as §1

MCF-7 Tam1 [18] = assay: as above; conditions: 4-OH-tamoxifen in medium 1 µM; 72 h
Outline: as §1

ZR-75-1 Tam2 [19] = assay: as above; conditions: 4-OH-tamoxifen in medium 1 µM; 72 h
Outline: as §1

BT-474 Tam1 [20] = assay: relative IC50 (midpoint of fitted logistic curve, plateau may be below 50% inhibition; CellTiter-Glo viability); higher = less potent; conditions: 4-OH-tamoxifen in medium 1 µM; 72 h
Outline: as §1

Compound | relative IC50 (BT-474 Tam2 [2]) | relative IC50 (BT-474 [3]; 4-OH-tamoxifen in medium 0 µM) | relative IC50 (BT-474 [3]; 4-OH-tamoxifen in medium 1 µM) | relative IC50 (MCF-7 [4]; 4-OH-tamoxifen in medium 0 µM) | relative IC50 (MCF-7 [4]; 4-OH-tamoxifen in medium 1 µM) | relative IC50 (T-47D Tam2 [6]) | relative IC50 (T-47D [7]; 4-OH-tamoxifen in medium 0 µM) | relative IC50 (MCF-7 Tam1 [8]) | relative IC50 (BT-474 Tam1 [20]) | relative IC50 (T-47D [7]; 4-OH-tamoxifen in medium 1 µM) | relative IC50 (ZR-75-1 [1]; 4-OH-tamoxifen in medium 0 µM) | relative IC50 (ZR-75-1 [1]; 4-OH-tamoxifen in medium 1 µM) | relative IC50 (ZR-75-1 Tam1 [5]) | relative IC50 (ZR-75-1 Tam2 [9]) | drug sensitivity score (ZR-75-1 [10]; 4-OH-tamoxifen in medium 0 µM) | drug sensitivity score (ZR-75-1 [10]; 4-OH-tamoxifen in medium 1 µM) | drug sensitivity score (BT-474 Tam2 [11]) | drug sensitivity score (BT-474 [12]; 4-OH-tamoxifen in medium 0 µM) | drug sensitivity score (BT-474 [12]; 4-OH-tamoxifen in medium 1 µM) | drug sensitivity score (MCF-7 [13]; 4-OH-tamoxifen in medium 0 µM) | drug sensitivity score (MCF-7 [13]; 4-OH-tamoxifen in medium 1 µM) | drug sensitivity score (BT-474 Tam1 [14]) | drug sensitivity score (ZR-75-1 Tam1 [15]) | drug sensitivity score (T-47D Tam1) | drug sensitivity score (T-47D Tam2 [16]) | drug sensitivity score (T-47D [17]; 4-OH-tamoxifen in medium 0 µM) | drug sensitivity score (T-47D [17]; 4-OH-tamoxifen in medium 1 µM) | drug sensitivity score (MCF-7 Tam1 [18]) | drug sensitivity score (ZR-75-1 Tam2 [19])
CCN(CC)CCNC(=O)c1c(C)[nH]c(/C=C2\C(=O)Nc3ccc(F)cc32)c1C | > 1000 nM | > 1000 nM | 276 nM | > 1000 nM | > 1000 nM | > 1000 nM | > 1000 nM | > 1000 nM | – | – | > 1000 nM | > 1000 nM | > 1000 nM | > 1000 nM | 0 | 0 | 0 | 0 | 1.81 | 0 | 0 | 0.118 | 0 | 0.199 | 0 | 0 | 0.383 | 0 | 0
Cc1c(N)nc([C@H](CC(N)=O)NC[C@H](N)C(N)=O)nc1C(=O)N[C@H](C(=O)N[C@H](C)[C@@H](O)[C@H](C)C(=O)N[C@H](C(=O)NCCc1nc(-c2nc(C(=O)NCCC[S+](C)C)cs2)cs1)[C@@H](C)O)[C@@H](OC1OC(CO)C(O)C(O)C1OC1OC(CO)C(O)C(OC(N)=O)C1O)c1cnc[nH]1 (stereo partly specified) [Bleomycin] | > 10000 nM | > 10000 nM | > 10000 nM | – | – | > 10000 nM | – | > 10000 nM | > 10000 nM | > 10000 nM | – | > 10000 nM | – | > 10000 nM | 0.615 | 0 | 0 | 0 | 0 | 0.0343 | 0.0155 | 0 | 0.117 | 1.38 | 0 | 0.51 | 0 | 0 | 0
CC[C@H](Nc1ncnc2[nH]cnc12)c1nc2cccc(F)c2c(=O)n1-c1ccccc1 [CAL-101] | > 10000 nM | > 10000 nM | – | – | – | 1710 nM | – | > 10000 nM | > 10000 nM | – | 1210 nM | 1210 nM | 1140 nM | 1330 nM | 4.36 | 4.39 | 0 | 0 | 0.147 | 2.04 | 0.584 | 0 | 4.88 | 0.811 | 2.66 | 0.0938 | 0.0607 | 0 | 5.82

Continued, in another order:

relative IC50 (BT-474 Tam2 [2]) | relative IC50 (BT-474 [3]; 4-OH-tamoxifen in medium 0 µM) | relative IC50 (BT-474 [3]; 4-OH-tamoxifen in medium 1 µM) | relative IC50 (MCF-7 [4]; 4-OH-tamoxifen in medium 0 µM) | relative IC50 (MCF-7 [4]; 4-OH-tamoxifen in medium 1 µM) | relative IC50 (T-47D Tam2 [6]) | relative IC50 (T-47D [7]; 4-OH-tamoxifen in medium 0 µM) | relative IC50 (MCF-7 Tam1 [8]) | relative IC50 (BT-474 Tam1 [20]) | relative IC50 (T-47D [7]; 4-OH-tamoxifen in medium 1 µM) | Compound | relative IC50 (ZR-75-1 [1]; 4-OH-tamoxifen in medium 0 µM) | relative IC50 (ZR-75-1 [1]; 4-OH-tamoxifen in medium 1 µM) | relative IC50 (ZR-75-1 Tam1 [5]) | relative IC50 (ZR-75-1 Tam2 [9]) | drug sensitivity score (ZR-75-1 [10]; 4-OH-tamoxifen in medium 0 µM) | drug sensitivity score (ZR-75-1 [10]; 4-OH-tamoxifen in medium 1 µM) | drug sensitivity score (BT-474 Tam2 [11]) | drug sensitivity score (BT-474 [12]; 4-OH-tamoxifen in medium 0 µM) | drug sensitivity score (BT-474 [12]; 4-OH-tamoxifen in medium 1 µM) | drug sensitivity score (MCF-7 [13]; 4-OH-tamoxifen in medium 0 µM) | drug sensitivity score (MCF-7 [13]; 4-OH-tamoxifen in medium 1 µM) | drug sensitivity score (BT-474 Tam1 [14]) | drug sensitivity score (ZR-75-1 Tam1 [15]) | drug sensitivity score (T-47D Tam1) | drug sensitivity score (T-47D Tam2 [16]) | drug sensitivity score (T-47D [17]; 4-OH-tamoxifen in medium 0 µM) | drug sensitivity score (T-47D [17]; 4-OH-tamoxifen in medium 1 µM) | drug sensitivity score (MCF-7 Tam1 [18]) | drug sensitivity score (ZR-75-1 Tam2 [19])
– | 3.76 nM | 3.83 nM | 1.23 nM | – | 4.21 nM | 1.76 nM | > 1000 nM | 6.72 nM | > 1000 nM | CC(=O)O[C@@]12CO[C@@H]1C[C@H](O)[C@@]1(C)C(=O)[C@H](O)C3=C(C)[C@@H](OC(=O)[C@H](O)[C@@H](NC(=O)OC(C)(C)C)c4ccccc4)C[C@@](O)([C@@H](OC(=O)c4ccccc4)[C@H]21)C3(C)C [Docetaxel] | – | > 1000 nM | > 1000 nM | > 1000 nM | 0.389 | 0 | 3.99 | 14 | 17.7 | 7.56 | 5.79 | 10 | 0 | 8.38 | 10.8 | 15.4 | 0 | 0 | 0
– | > 10000 nM | > 10000 nM | > 10000 nM | – | > 10000 nM | > 10000 nM | > 10000 nM | – | > 10000 nM | CNC(=O)c1ccc(N2C(=S)N(c3ccc(C#N)c(C(F)(F)F)c3)C(=O)C2(C)C)cc1F [Enzalutamide (MDV 3100)] | > 10000 nM | > 10000 nM | > 10000 nM | > 10000 nM | 0 | 0 | 0.634 | 0 | 0 | 0 | 0.74 | 0 | 0 | 0 | 0 | 0 | 0 | 0 | 0
> 1000 nM | > 1000 nM | 436 nM | – | – | 229 nM | 415 nM | > 1000 nM | > 1000 nM | – | C/C(=C\c1csc(C)n1)[C@@H]1C[C@@H]2O[C@]2(C)CCC[C@H](C)[C@H](O)[C@@H](C)C(=O)C(C)(C)[C@@H](O)CC(=O)N1 [Ixabepilone] | > 1000 nM | > 1000 nM | > 1000 nM | > 1000 nM | 0 | 0 | 0 | 0 | 1.39 | 0.882 | 1 | 0 | 0 | 0.349 | 2.1 | 1.7 | 0.538 | 0 | 0
> 1000 nM | > 1000 nM | > 1000 nM | > 1000 nM | > 1000 nM | > 1000 nM | > 1000 nM | > 1000 nM | – | > 1000 nM | CCN1CCN(c2ccc(Nc3cc(N(C)C(=O)Nc4c(Cl)c(OC)cc(OC)c4Cl)ncn3)cc2)CC1 [NVP-BGJ398] | > 1000 nM | > 1000 nM | > 1000 nM | > 1000 nM | 0 | 0 | 0 | 0 | 0 | 0 | 0 | 6.97 | 0 | 1.07 | 0 | 0 | 0 | 0 | 0
